Results on three compounds are retold here after patent US20190022096A1, “METHODS OF TREATING CANCER” (Corvus Pharmaceuticals, Inc., priority 2017, published 2019).

“And” between values parts separate entries of the source, which are not always exact repeats. Equal values may be shown once. “Also recorded” adds a separate entry of the source.

The subject of one data set is EL4 lymphoma. The experiment in a line: Syngeneic EL4 mouse lymphoma model. The data set is classed as in vivo. The following applies: CPI-444 10, 30, 100 mg/kg daily oral. As to the method: Syngeneic C57BL/6 female mice (8-10 weeks old) were injected (via subcutaneous route) with EL4 cells.
The test system of another data set is solid tumor patients. In words: Phase 1/1b clinical trial in solid tumor patients. The data set is classed as in vivo, human. As to the method:
After a dose selection stage, pts are treated in 10 disease specific cohorts (5 single agent and 5 combination). Cohorts may be expanded based on response criteria: complete response, partial response or stable disease (SD). Biomarkers are evaluated including immune cells by flow cytometry in peripheral blood and pre/post treatment tumor biopsies as well as adenosine pathway modulation by immunohistochemistry and gene expression.
In step 1 of the trial, patients were dosed with either 100 mg BID for 14 days out of a 28 day cycle, 100 mg BID for 28 days, 200 mg QD for 14 days or 50 mg or 100 mg BID for 14 days in combination with […]® (840 mg Q2W). Pharmacodynamic analysis was conducted on peripheral blood cells to inform dose selection. Step 1 of Phase1/1b was fully enrolled (n=48) and dose was selected (100 mg BID) based on pharmacodynamic analysis of A2AR pathway.

Data set [1] can be described thus: Plasma levels of CPI-444 in patients. Type of data set: in vivo, human. The following applies: Day 14.
The conditions of data set [2]: cited from earlier work.
The subject of the next data set is CT26 colon tumors. The experiment in a line: Syngeneic CT26 mouse colon cancer model. The following applies: CPI-444 100 mg/kg oral Day 0, 12 days, anti-PD-1 100 ug i.p. days 7, 9, 11, 13.
The subject of a further data set is MC38 colon tumors. In words: Syngeneic MC38 mouse colon carcinoma model.
For data set [3], the target named is T1, A2AR (Homo sapiens, UniProt P29274). In words: pERK in human CD4+ T cells after TCR cross-linking. The following applies: in the presence of NECA (1 μM).
Data set [4] addresses T1, A2AR. The experiment in a line: pCREB in fresh PBMCs (B cell population) stimulated with NECA. To be noted: primarily B cells.
Text: Adenosine signaling via A2AR leads to an increase in intracellular cAMP and subsequent phosphorylation of CREB.
Data set [5] addresses T1, A2AR. The experiment in a line: cAMP production in NECA-stimulated primary human T cells (LANCE Ultra cAMP). The data set is classed as cell-based. Further details: endogenous in cells; host or cells: primary human T cells / human PBMCs. As to the method: Adenosine signaling through A2AR leads to increases in the levels of cAMP.
T cells were isolated from human PBMC by negative selection and activated via CD3/CD28 stimulation for 48 hours to induce A2AR expression. Stimulated T cells were then “rested” for 24 hours by removal of CD3/CD28 stimulation in order to minimize background levels of cAMP.

For data set [6], the target named is T1, A2AR. In words: IL-2 and IFNγ secretion from activated primary human PBMCs (AlphaLISA). Type of data set: cell-based. Also noted: endogenous in cells; host or cells: primary human T cells / human PBMCs. The following applies: CPI-444 1 μM; NECA or CGS21680 1 μM; anti-CD3/anti-CD28 48 hours. As to the method:
Purified anti-CD3 and anti-CD28 monoclonal antibodies (1 ug/ml) were then added to activate T cells for 48 hours.
Purified anti-CD3 and anti-CD28 monoclonal antibodies (1 ug/ml) were then added to activate T cells for 48 hours. In this study, AlphaLISA assays (PerkinElmer) analyzed on an EnVision MultiLabel Reader were used to measure cytokine release according to the manufacturer's instructions.

The subject of data set [7] is NECA-induced pCREB in B cells. In words: NECA-induced pCREB in B cells of whole blood of treated patients (flow cytometry).
Experimental: (§1) On day 14, blood was collected prior to dosing (0 hr, trough) and for a time course post-dose (1.5, 3, 5.5, 8 hr) (FIGS. 26-28). The level of signaling was determined and the percent inhibition on Day 14 compared to Day 1 pre-treatment was calculated.
Data set [8] relates to NECA-induced pCREB in CD4+ T cells. The experiment in a line: NECA-induced pCREB in CD4+ T cells of whole blood of treated patients (flow cytometry). For orientation: A flow cytometer gives signals particle by particle.
Experimental: as §1
A further data set deals with Renca. The following applies: CPI-444 10 mg/kg from Day 16, 14 days; 50 mg/kg Cyclophosphamide on first day.

T1 sequence (P29274 whole entry): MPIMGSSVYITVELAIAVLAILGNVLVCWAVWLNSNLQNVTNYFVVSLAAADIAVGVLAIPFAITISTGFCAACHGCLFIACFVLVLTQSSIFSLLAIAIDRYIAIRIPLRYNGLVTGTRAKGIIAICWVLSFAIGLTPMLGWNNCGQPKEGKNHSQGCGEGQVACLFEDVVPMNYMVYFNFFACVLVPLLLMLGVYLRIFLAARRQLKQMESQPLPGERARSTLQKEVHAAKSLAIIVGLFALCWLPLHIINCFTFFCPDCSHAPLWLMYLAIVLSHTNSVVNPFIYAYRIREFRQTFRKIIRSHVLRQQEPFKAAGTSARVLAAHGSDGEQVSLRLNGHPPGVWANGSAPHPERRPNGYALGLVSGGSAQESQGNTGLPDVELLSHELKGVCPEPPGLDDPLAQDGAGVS
Text for CT26 colon tumors: Treatment continued for 12 days.
Treatment continued for 7 days. […] Treatment continued for 7 days.
Treatment continued for 7 days.

As for `Cc1ccc(-c2nc(N)nc3c2nnn3Cc2cccc(COC3CCOC3)n2)o1` (centres unmarked) [CPI-444], the “response of established primary tumors” value with EL4 lymphoma is on record as “minimal therapeutic response”. Further, the “tumor growth in regional lymph nodes (number and size of enlarged nodes)” value with EL4 lymphoma is on record as “significant dose-dependent inhibition; also recorded: significant, dose-dependent decrease”. Also, the “Grade 3 or 4 treatment related adverse events” value with solid tumor patients (7 pts treated to date) is on record as “no Grade 3 or 4 treatment related adverse events”. For the same compound, in the data set with solid tumor patients (Nivolumab-refractory lung cancer patient, FIG. 21C), the “TCR clonality following treatment” value is recorded as “increased clonality”. Besides, the tumor response result in the data set on solid tumor patients (Nivolumab-refractory lung cancer patient, single agent 100 mg po BID x 28 days/cycle) is given as “Tumor regression”. In the data set on solid tumor patients (single agent and combination cohorts), the “PD-1+/CD8+ (activated CD8) and memory cell frequencies in blood” value was “Increases”. Further, the “TCR repertoire in peripheral blood” value in the data set on solid tumor patients (single agent, some patients) is recorded as “robust changes; also recorded: induced”. The tolerability result (in the data set on solid tumor patients (solid tumor patients); in data set [2] (non-oncology indications)) was “well tolerated” in each case. Further, the “increases in PD-1+CD8+ cells in peripheral blood compared to baseline” value with solid tumor patients (the two pts with SD) is 1.7 fold and 2.4 fold. The “time of peak plasma drug levels” value in [1] amounted to 3 h. Besides, the adverse events entry in data set [2] (75 subjects previously dosed) is given as “no significant adverse events”. Further, the “tumor growth, single agents” value is recorded as “inhibition of tumor growth; also recorded: inhibits the growth; also recorded: non-significant reductions in tumor growth” with CT26 colon tumors; “moderate tumor growth inhibition” in the data set on MC38 colon tumors (CPI-444 100 mg/kg from Day 9, anti-CTLA-4 100 ug); “inhibition of tumor growth” with MC38 colon tumors (CPI-444 100 mg/kg oral Day 0, 12 days, anti-PD-L1 200 ug i.p. days 7, 10, 13, 16). Besides, in the data set on MC38 colon tumors (9 mice rechallenged, over 15 days after first 5 days), the “mice in which rechallenge tumors were fully rejected” value is on record as 9 mice. The tumor growth result in the data set on MC38 colon tumors (CPI-444 1 mg/kg daily oral gavage 28 days, from one day after engraftment) was “did not inhibit tumor growth”; with MC38 colon tumors (CPI-444 10 mg/kg daily oral, 10 mg/kg), “significantly inhibits; also recorded: significant inhibition of tumor growth”; in the data set with MC38 colon tumors (CPI-444 100 mg/kg daily oral, 100 mg/kg) it was “significantly inhibits; also recorded: significant inhibition of tumor growth”. Further, the eliminates tumors in the data set on MC38 colon tumors (CPI-444 100 mg/kg from Day 9, 14 days, anti-CTLA-4 9H10 100 ug days 9, 12, 15, 18) is recorded as 20 % of mice. Further, the eliminated tumors in the data set with MC38 colon tumors (CPI-444 dose response study) is 30 % of mice. In addition, in the data set with MC38 colon tumors (MC38 re-challenge), the “tumor growth on re-challenge of cured mice” value is recorded as “fully inhibited”. Moreover, the signs of reoccurrence entry in the data set with MC38 colon tumors (additional 6 weeks after end of study) is “No tumor growth was observed”. In the data set with MC38 colon tumors (all cohorts (1, 10, 100 mg/kg)), the complete tumor regression result is “observed in a subset of mice”. Further, the “inhibition of tumor growth, dose response” value in the data set with MC38 colon tumors (daily CPI-444 1, 10, 100 mg/kg) is “dose-dependent inhibition”. Besides, in the data set on MC38 colon tumors (daily CPI-444 1, 10, 100 mg/kg), the tumor elimination is listed as 9/30. For the same compound, the protected from rechallenge in the data set with MC38 colon tumors (mice with complete tumor growth inhibition, new MC38 engraftment, no additional treatment) stood at 100%. Besides, the “levels of immune checkpoints GITR, OX40, LAG3 on tumor infiltrating lymphocytes and circulating T cells” value in the data set on MC38 colon tumors (mouse, in vivo) was “modulated”. In addition, the “CD73 expression in tumors (IHC, frequency x intensity)” value with MC38 colon tumors (relative to control) is recorded as “significantly higher”. Further, the “ERK signaling / pERK levels in CD4+ T cells” value at A2AR [3] is reported as “restored pERK levels in a dose-dependent manner”. The “NECA-induced CREB phosphorylation” value on A2AR [4] is listed as “completely inhibited”. The “cAMP production upon NECA stimulation, dependence on CPI-444 dose” value at A2AR [5] (FIG. 6) is on record as “dose-dependent manner”. At A2AR [5] (all levels of NECA tested (10^-5 to 10^-9 M), 10 minutes), the “production of cAMP upon NECA treatment” value is listed as “completely blocked”. In addition, the “IFNγ secretion in presence of A2AR agonist” value on A2AR [6] is “restored”. The “IL-2 secretion in presence of A2AR agonist” value at A2AR [6] is on record as “restored”. Further, the “inhibition of pCREB” value in data set [7] (50 mg BID cohort) was “not high enough for sustained inhibition; also recorded: Variable inhibition”; in data set [7] (100 mg BID cohort), “highest pCREB inhibition at trough and near complete inhibition after taking their morning dose; also recorded: high pCREB inhibition at trough and near complete inhibition after taking their morning dose”; in data set [7] (200 mg QD cohort), “achieves high peak levels but is not maintained at trough; also recorded: Variable inhibition”. Further, the “patients with complete and sustained inhibition of NECA-induced pCREB” value in data set [7] (100 mg BID single agent, Day 14) is listed as 7 of 7. For the same compound, the “pCREB induction by NECA” value in data set [7] (following 14 days of treatment) is “attenuated”. The “inhibition of NECA induced increase of pCREB” value in [7] (one subject, 200QD for 14 days, 1 μM NECA) is given as “partial inhibition”. Moreover, the “CPI-444 plasma level above which pCREB inhibition is near complete” value in data set [8] is “greater than 2,000 ng/mL”.
Consider `O=P1(N(CCCl)CCCl)NCCCO1` (centres unmarked) [Cyclophosphamide], for which the “tumor growth / response rate” value in the data set on Renca is recorded as “slight tumor growth inhibition”.
`COc1cccc2c1C(=O)c1c(O)c3c(c(O)c1C2=O)C[C@@](O)(C(=O)CO)C[C@@H]3O[C@H]1C[C@H](N)[C@H](O)[C@H](C)O1` [Doxorubicin, reference compound]: the tumor growth entry with MC38 colon tumors (CPI-444 100 mg/kg from Day 11, 14 days, 4 mg/kg Doxorubicin on first day) was “slight tumor growth inhibition”.
